# Tests used:
# Assay type in all cases: cell-based
# [1] = system: Campylobacter jejuni ATCC 29428; assay: Individual bacteria count per bird at pH 8 (Example 3); settings: 25 birds per treatment, control 1282
# Description: (§1) This group of tests was conducted to determine the effect of Clorox® bleach, Aquatize® biocide, and 1,3-dibromo-5,5-dimethylhydantoin (DBDMH) on carcass bacteria (Escherichia coli field strain) residual after 1,5-hour in a chill tank “soup”. Tests were conducted with soups at pH 7, pH 8 and pH 9 (adjusted by trisodium phosphate) for whole bird bacteria counts. Tests at pH 8 were conducted for individual bacteria counts.
# (§2) In general the tests involved normal processing of 56-day-old birds and immersing the carcasses first in a warm bath containing 10^4 per mL Escherichia coli, 10^4 per mL Salmonella enteritidis, 10^4 per mL Pseudomonas aeruginosa, 10^4 per mL Campylobacter jejuni, and 10^4 per mL spoilage bacteria each from […] strains (Listeria monocytogenes and Shigella sonnei). The carcasses were then immersed in a chill tank “soup”, containing normal organic fluids (blood, fat, skin, and meat particles) and containing the microbiocides on the test.
# (§3) The bacteria stock solution used for this group of tests was prepared by growing each bacteria sample in the appropriate broth shown in Table 12. […] The containers were observed and not allowed to develop a heavy, cloudy visual appearance which would indicate that the growth had developed for too long a period. Thus the solutions had the appearance of only being foggy or somewhat unclear.
# (§4) The procedure used for whole bird wash sampling was as follows: • 1. All samples were kept at ≦50 degrees Fahrenheit following collection. • 2. Microbiological analyses of samples began within 24 hours of sample collection. • 3. Information on the individual sample identification, date of collection, time of collection (phase during shift), treatment group and location of sample point were recorded on each sample bottle. • 4. At each defined sample time, carcasses were taken individually from the processing line wearing latex or rubber gloves. The gloves were rinsed with alcohol between each collection. • 5. Any excess fluid was drained off from the carcass. Each individual carcass was transferred to a sterile stomacher bag. • 6. To each carcass contained in the sterile stomacher bag, 400 mL of Butterfield's Phosphate Diluent (BPD) was added while making sure to pour the BPD into the inside of the carcass cavity. The carcass was rinsed inside and out with a rocking motion for one minute (ca. 35 RPM). This was best done by grasping the broiler carcass with one hand and the closed top of the bag with the other then rocking with a reciprocal motion in a 18-24 inch arc, assuring that all surfaces (interior and exterior of the carcass) were rinsed. • 7. The rinse solutions from each stomacher bag was transferred into the sample bottles, taking care to ensure that the information on the date of collection, time of collection (phase during shift), treatment group and location of sampler point matched that of the sample. • 8. Each bottle was sealed with parafilm and placed into a styrene container with crushed or dry ice or frozen freezer packs for overnight delivery to a testing laboratory. • 9. All filled styrene containers were held in a chilled (not below freezing) area until within 1 to 2 hours of courier collection for shipment.
# (§5) In greater detail the trial events and experimental design used in this group of tests were as follows: • a) Test microorganisms used were: • Escherichia coli ATCC 11229 • Pseudomonas aeruginosa ATCC 15442 • Salmonella enteritidis ATCC 13076 • Shigella sonnei ATCC 9290 • Listeria monocytogenes ATCC 7644 • Campylobacter jejuni ATCC 29428 • b) Test Procedure: All test strains were grown individually at 35° C. for 24 hours in the media specified in Table 12. Cells were harvested by centrifugation at 10,000×g for 10 minutes and washed twice with Butterfield's Phosphate Buffer (BPB of pH 7.2). Cells were resuspended in BPB to obtain a cell suspension of approximately 1.0×10^8 CFU/mL for each microorganism. […]
# [2] = system: Escherichia coli ATCC 11229; assay: as above; settings: 25 birds per treatment, control 3055
# Description: as §1, §2, §3, §4, §5
# [3] = system: Listeria monocytogenes ATCC 7644; assay: as above; settings: 25 birds per treatment, control 2463
# Description: as §1, §2, §3, §4, §5
# [4] = system: Pseudomonas aeruginosa ATCC 15442; assay: as above; settings: 25 birds per treatment, control 2783
# Description: as §1, §2, §3, §4, §5
# [5] = system: Salmonella enteritidis ATCC 13076; assay: as above; settings: 25 birds per treatment, control 3969
# Description: as §1, §2, §3, §4, §5
# [6] = system: Shigella sonnei ATCC 9290; assay: as above; settings: 25 birds per treatment, control 4551
# Description: as §1, §2, §3, §4, §5
# [7] = system: S. sonnei, L. monocytogenes, E. coli, S. enteritidis, P. aeruginosa, C. jejuni; assay: Mean % reduction from control over the six organisms (Example 3); settings: pH 8
# Description: as §1, §2
# The procedure used for whole bird wash sampling was as follows: • 1. All samples were kept at ≦50 degrees Fahrenheit following collection. • 2. Microbiological analyses of samples began within 24 hours of sample collection. • 3. Information on the individual sample identification, date of collection, time of collection (phase during shift), treatment group and location of sample point were recorded on each sample bottle. • 4. […]
smiles,measurement,setting,value
"CC1(C)C(=O)N(Br)C(=O)N1Br [DBDMH, 1,3-dibromo-5,5-dimethylhydantoin]","average bacteria count per bird, C. jejuni",[1]; 10 ppm,183 per bird
same,"average bacteria count per bird, C. jejuni",[1]; 20 ppm,15 per bird
same,"average bacteria count per bird, E. coli",[2]; 10 ppm,357 per bird
same,"average bacteria count per bird, E. coli",[2]; 20 ppm,4 per bird
same,"average bacteria count per bird, L. monocytogenes",[3]; 10 ppm,262 per bird
same,"average bacteria count per bird, L. monocytogenes",[3]; 20 ppm,6 per bird
same,"average bacteria count per bird, P. aeruginosa",[4]; 10 ppm,289 per bird
same,"average bacteria count per bird, P. aeruginosa",[4]; 20 ppm,9 per bird
same,"average bacteria count per bird, S. enteritidis",[5]; 10 ppm,560 per bird
same,"average bacteria count per bird, S. enteritidis",[5]; 20 ppm,10 per bird
same,"average bacteria count per bird, S. sonnei",[6]; 10 ppm,456 per bird
same,"average bacteria count per bird, S. sonnei",[6]; 20 ppm,12 per bird
same,Mean % Reduction From Control,[7]; 10 ppm,85.8%
same,Mean % Reduction From Control,[7]; 20 ppm,98.8%

# — patent US7767240B2, “Microbiological control in poultry processing” (priority 2001, dated 2010)
